Measured values taken from article PMC11044151, “Development of Half-Sandwich Ru, Os, Rh, and Ir Complexes Bearing the Pyridine-2-ylmethanimine Bidentate Ligand Derived from 7-Chloroquinazolin-4(3H)-one with Enhanced Antiproliferative Activity” (ACS Omega, 2024).
Like-named read-outs stand apart in the source and are kept apart here. One block for each molecule: values may come before it.

Experiments:
SW620C = test: Neutral red uptake antiproliferative assay, MDR line SW620C; assay type: cell-based, human; settings: for IC50: exposure time 72 h, n = 3, ABCG2-overexpressing MDR line
Source text: (§1) Next, we evaluated the cytotoxicity of the synthesized complexes toward the panel of six multidrug-resistant (MDR) cell lines derived from SW620 and characterized by the overexpression of various ABC proteins, namely, ABCG2 (SW620C and SW620Mito), ABCC1 (SW620M and SW620E), and ABCB1 (SW620D, SW620E, and SW620V) (Table 3, Figures S29 and S32). […] The activity of the complexes derived from the ligand (S)-2 is also considerably higher than that of the compounds containing the ligand (R)-2. The cytotoxicity of both rhodium 4c and iridium 4d complexes is higher than that of amine (S)-1. In the case of 4c, the increase in cytotoxicity is low, with the highest value of 3.7-fold for the SW620Mito line. […] Compound 4d also exerts a 2.1- and 2.6-fold higher cytotoxicity than […] against the SW620C and SW620D lines.
(§2) For this purpose, neutral red uptake assay was performed. […] The results were presented as a percentage of control.

HCT116 = test: cells; settings: for IC50: read-out: IC50 HCT116
Source text: (§3) To assess the impact of conjugating half-sandwich complexes with amines 1 via an imine-pyridine ligand on biological activity, we examined the antiproliferative potential of (R)- and (S)-1 and organometallic conjugates 3a–d and 4a–d in selected human cancer cell lines: alveolar basal epithelial cell adenocarcinoma (A549), colorectal adenocarcinomas (Colo205 and SW620), colorectal carcinoma (HCT116), hepatocellular carcinoma (HepG2), and breast adenocarcinoma (MCF7). The choice of cell lines was dictated by results of previously published clinical trials on ispinesib.[49],[50]
(§4) For this purpose, neutral red uptake assay was performed. 10^4 of cells were seeded per well of a 96-well plate and left overnight to allow cells to attach to the surface. Then, the cells were exposed to a desired concentration of tested compounds. Stock solutions were prepared in DMSO and were used immediately after preparation. The final concentration of DMSO was constant and nontoxic (0.1% v/v). After 70 h of culture, neutral red was added to the final concentration of 1 mM. After 2 h of incubation with the dye, the medium was aspirated and cells were washed with ice-cold PBS. The dye was released using 100 μL of the solubilizer (1% acetic acid in 50% ethanol) on an orbital shaker (10 min). The absorbance at 540 nm was measured using an EnVision multilabel plate reader (PerkinElmer). […] The IC90 and IC50 parameters were calculated using GraphPad Prism v9 software using the five-parameter nonlinear logistic regression model.

SW620Mito = test: Neutral red uptake antiproliferative assay, MDR line SW620Mito; assay type: cell-based, human; settings: for IC50: exposure time 72 h, n = 3, ABCG2-overexpressing MDR line
Source text: as §1, §2

SW620D = test: Neutral red uptake antiproliferative assay, MDR line SW620D; assay type: cell-based, human; settings: for IC50: exposure time 72 h, n = 3, ABCB1-overexpressing MDR line
Source text: as §1, §2

KSP = target: T1, KSP (Homo sapiens, UniProt P52732); test: Kinesin ATPase inhibition (ATP hydrolysis) end-point assay; assay type: biochemical; settings: 100 nM stated for ispinesib and (R)-1; concentration not restated for the complexes
T1 construct: purchased Cytoskeleton, Inc
T1 sequence (P52732 1-368 limits assumed): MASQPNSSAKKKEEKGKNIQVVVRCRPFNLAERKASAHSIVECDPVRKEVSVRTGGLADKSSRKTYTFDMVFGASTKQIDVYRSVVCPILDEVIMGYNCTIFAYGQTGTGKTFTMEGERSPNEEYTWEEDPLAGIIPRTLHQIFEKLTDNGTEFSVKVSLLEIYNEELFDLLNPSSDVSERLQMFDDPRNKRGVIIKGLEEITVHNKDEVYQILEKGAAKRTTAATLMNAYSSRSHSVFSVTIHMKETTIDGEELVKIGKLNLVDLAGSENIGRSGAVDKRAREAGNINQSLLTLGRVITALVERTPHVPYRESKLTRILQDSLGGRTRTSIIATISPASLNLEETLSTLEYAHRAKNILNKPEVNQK
Method: The mechanism of the anticancer activity of ispinesib is related to the inhibition of the activity of the KSP. Thus, we studied the synthesized compounds’ ability to inhibit KSP activity using the adenosine 5′-triphosphate (ATP) hydrolysis assay.
The potential kinesin modulatory activity of tested compounds was performed using a Kinesin ATPase end-point biochem kit (Cytoskeleton, Inc.). […] The experiment was performed according to the manufacturer’s instructions. One μg of tested kinesin (KSP) was used per reaction. Phosphate release was measured at the absorbance 650 nm using an EnVision multilabel plate reader (PerkinElmer).

SW620E = test: Neutral red uptake antiproliferative assay, MDR line SW620E; assay type: cell-based, human; settings: for IC50: exposure time 72 h, n = 3, ABCC1- and ABCB1-overexpressing MDR line
Source text: as §1, §2

SW620 = test: Neutral red uptake antiproliferative assay, SW620; assay type: cell-based, human; settings: for IC50: exposure time 72 h, n = 3, 95% CI given
Source text: as §3
(§5) Cell lines used in this study were purchased from the American Type Culture Collection via LGC Standards. Human normal lung fibroblasts (MRC-5), alveolar basal epithelial cell adenocarcinoma (A549), colorectal adenocarcinoma (Colo205), hepatocellular carcinoma (HepG2), breast adenocarcinoma (MCF7), and colorectal adenocarcinoma (SW620) and its MDR variants[55] were cultured in standard conditions (37 °C, 5% CO2, 100% relative humidity) in high glucose DMEM medium supplemented with GlutaMax, HEPES (ThermoFisher Scientific) and 10% fetal bovine serum (EURx, Poland). All cell lines were tested for Mycoplasma contamination using a MycoProbe mycoplasma detection kit (R&D System).
as §4

A549 = test: Neutral red uptake antiproliferative assay, A549; settings: for IC50: read-out: IC50 A549
Source text: as §3, §5, §4

Colo205 = test: cells; settings: for IC50: read-out: IC50 Colo205
Source text: as §3, §5, §4

HepG2 = test: cells; settings: for IC50: read-out: IC50 HepG2
Source text: as §3, §5, §4

MCF7 = test: cells; settings: for IC50: read-out: IC50 MCF7
Source text: as §3, §5, §4

SW620M = test: Neutral red uptake antiproliferative assay, MDR line SW620M; assay type: cell-based, human; settings: for IC50: exposure time 72 h, n = 3, ABCC1-overexpressing MDR line
Source text: as §1, §2

SW620 cells = test: Cell cycle distribution by flow cytometry, SW620; assay type: cell-based, human; settings: concentration equal to IC75 of (S)-1 / (R)-1, mean ± SEM, n = 3; for Cell cycle fraction G1, 24 h / Cell cycle fraction G2/M, 24 h / Cell cycle fraction S, 24 h: SW620, 24 h; for Cell cycle fraction G1, 48 h / Cell cycle fraction G2/M, 48 h / Cell cycle fraction S, 48 h: SW620, 48 h
Method: Ispinesib leads to the formation of monopolar mitotic spindles and a blockade of chromosome segregation in cancer cells. Using flow cytometry, we assessed the cell cycle distribution in the SW620 and SW620E cells exposed to the studied compounds for 24 and 48 h. […] Both complexes, 3c and 3d, decrease the percentage of cells in the G1/G0 phase and increase the percentage in the S and G2/M phases. […] Furthermore, prolonged exposure to the compounds increases the percentage of cells in the G2/M phase, with the most intensive effect observed for 3c and 3d.
SW620 and SW620E cells lines (vulnerable and resistant variants, respectively) were seeded in 6-well plates at a density of 10^5 cells per well. […] After 24 h, the cells were trypsinized and fixed with ice-cold 70% v/v ethanol. The cells were stained with 75 μM propidium iodide with 50 Kunitz units of RNase A in PBS for 30 min at 37 °C. All samples were analyzed using a LSRII flow cytometer (Becton Dickinson) at a PE channel ([…]). Cell cycle phase distribution was determined using a built-in cell cycle module (Watson pragmatic algorithm) by FlowJo 7.6.1 software.

SW620V = test: Neutral red uptake antiproliferative assay, MDR line SW620V; assay type: cell-based, human; settings: for IC50: exposure time 72 h, n = 3, ABCB1-overexpressing MDR line
Source text: as §1, §2

[1] = vs corresponding amine (R)-1 or (S)-1, 72 h
[2] = exposure time 72 h, n = 3, 95% CI given

- IC50 (SW620C; Homo sapiens): 721 nM
- IC50 (HCT116; Homo sapiens, HCT-116, 72 h): 346 nM
- IC50 (SW620Mito; Homo sapiens): 261 nM
- IC50 (SW620D; Homo sapiens): 1120 nM
- KSP residual activity (KSP): about 35%
- IC50 (SW620E; Homo sapiens): 835 nM
- IC50 (SW620; Homo sapiens, SW-620): 96 nM
- IC50 (A549; Homo sapiens, A549, 72 h): 2210 nM
- IC50 (Colo205; Homo sapiens, COLO 205, 72 h): 107 nM
- IC50 (HepG2; Homo sapiens, HepG2, 72 h): 566 nM
- IC50 (MCF7; Homo sapiens, MCF7, 72 h): 231 nM
- IC50 (SW620M; Homo sapiens): 241 nM
- IC50 (SW620V; Homo sapiens): 206 nM
SMILES: CC(C)[C@@H](N)c1nc2cc(Cl)ccc2c(=O)n1Cc1ccccc1 [(R)-1, reference compound]
- Cell cycle fraction G1, 24 h (SW620 cells): 45.4 ± 1.0%
- Cell cycle fraction G2/M, 24 h (SW620 cells): 36.6 ± 2.2%
- Cell cycle fraction S, 24 h (SW620 cells): 17.2 ± 1.3%
- Cell cycle fraction G1, 48 h (SW620 cells): 36.2 ± 1.4%
- Cell cycle fraction G2/M, 48 h (SW620 cells): 42.1 ± 0.4%
- Cell cycle fraction S, 48 h (SW620 cells): 19.0 ± 0.6%

SMILES: Cc1ccc(C(=O)N(CCCN)[C@@H](c2nc3cc(Cl)ccc3c(=O)n2Cc2ccccc2)C(C)C)cc1 [ispinesib, reference compound]
- KSP residual activity (KSP): 2.2%

- IC50 (SW620C): 4540 nM
- activity factor IC50(1)/IC50(3a–4d), SW620C (SW620C; [1]): (0.738)
- IC50 (HCT116; [2]): 823 nM
- activity factor IC50(1)/IC50(3a–4d), HCT116 (HCT116; [1]): (9.79)
- IC50 (SW620Mito): 3780 nM
- activity factor IC50(1)/IC50(3a–4d), SW620Mito (SW620Mito; [1]): (1.03)
- IC50 (SW620D): 13500 nM
- activity factor IC50(1)/IC50(3a–4d), SW620D (SW620D; [1]): (0.307)
- IC50 (SW620E): 12800 nM
- activity factor IC50(1)/IC50(3a–4d), SW620E (SW620E; [1]): (0.316)
- IC50 (SW620): 2310 nM
- activity factor IC50(1)/IC50(3a–4d), SW620 (SW620; [1]): (1.24)
- IC50 (A549; [2]): 2190 nM
- activity factor IC50(1)/IC50(3a–4d), A549 (A549; [1]): (3.22)
- IC50 (Colo205; [2]): 904 nM
- activity factor IC50(1)/IC50(3a–4d), Colo205 (Colo205; [1]): (6.71)
- IC50 (HepG2; [2]): 1130 nM
- activity factor IC50(1)/IC50(3a–4d), HepG2 (HepG2; [1]): (2.12)
- IC50 (MCF7; [2]): 438 nM
- activity factor IC50(1)/IC50(3a–4d), MCF7 (MCF7; [1]): (8.93)
- IC50 (SW620M): 2450 nM
- activity factor IC50(1)/IC50(3a–4d), SW620M (SW620M; [1]): (1.41)
- IC50 (SW620V): 9300 nM
- activity factor IC50(1)/IC50(3a–4d), SW620V (SW620V; [1]): (0.370)
SMILES: CC(C)[C@H](N=Cc1ccccn1)c1nc2cc(Cl)ccc2c(=O)n1Cc1ccccc1.Cc1ccc(C(C)C)cc1.F[P-](F)(F)(F)(F)F.[Cl-].[Os+2] [Compound 4b, [(cym)Os((S)-2)Cl]PF6]
- increased cytotoxicity vs corresponding amine 1, HCT116 (HCT116): 10 fold
- increased cytotoxicity vs corresponding amine 1, Colo205 (Colo205): 7 fold
- increased cytotoxicity vs corresponding amine 1, MCF7 (MCF7): 9 fold
- Cell cycle fraction G1, 24 h (SW620 cells): 51.8 ± 0.2%
- Cell cycle fraction G2/M, 24 h (SW620 cells): 32.6 ± 0.3%
- Cell cycle fraction S, 24 h (SW620 cells): 15.0 ± 0.5%
- Cell cycle fraction G1, 48 h (SW620 cells): 41.8 ± 0.4%
- Cell cycle fraction G2/M, 48 h (SW620 cells): 42.7 ± 0.6%
- Cell cycle fraction S, 48 h (SW620 cells): 14.9 ± 0.4%
